{
  "source": "patent US8952024B2",
  "about": "“Herbicidal pyrimidone derivatives” (E I du Pont de Nemours and Company, priority 2009, dated 2015)",
  "test_in_all_cases": "Test B pre-/postemergence plant response",
  "format_in_all_cases": "in vivo",
  "key": {"[1]": {"system": "yellow nutsedge (Cyperus esculentus)", "settings": "for Plant response rating, Nutsedge, Yellow: Postemergence", "outline": "(§1)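 Ratings reflect visual comparison with untreated controls 13 to 15 days after application, from 0 (no effect) to 100 (complete control). Application was preemergence to seeded loam/sand soil or postemergence to 1- to 4-leaf plants, with compound in a non-phytotoxic, surfactant-containing solvent.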"}, "[2]": {"system": "Italian ryegrass (Lolium multiflorum)", "settings": "for Plant response rating, Ryegrass, Italian: Postemergence", "outline": "as §1"}, "kochia (Kochia scoparia)": {"system": "kochia (Kochia scoparia)", "settings": "for Plant response rating, Kochia: Postemergence", "outline": "as §1"}, "[3]": {"system": "large crabgrass (Digitaria sanguinalis)", "settings": "for Plant response rating, Crabgrass, Large: Postemergence", "outline": "as §1"}, "[4]": {"system": "cocklebur (Xanthium strumarium)", "settings": "for Plant response rating, Cocklebur: Postemergence", "outline": "as §1"}, "[5]": {"system": "woolly cupgrass (Eriochloa villosa)", "settings": "for Plant response rating, Cupgrass, Woolly: Postemergence", "outline": "as §1"}, "soybean (Glycine max)": {"system": "soybean (Glycine max)", "settings": "for Plant response rating, Soybean: Postemergence", "outline": "as §1"}, "[6]": {"system": "bermudagrass (Cynodon dactylon)", "settings": "for Bermudagrass plant response rating (0 to 100 scale): 62 g ai/ha, postemergence, 0 is no effect, 100 is complete control; for Plant response rating, Bermudagrass: Postemergence", "outline": "as §1"}, "[7]": {"system": "morningglory (Ipomoea coccinea)", "settings": "for Plant response rating, Morningglory: Postemergence", "outline": "as §1"}, "[8]": {"system": "velvetleaf (Abutilon theophrasti)", "settings": "for Plant response rating, Velvetleaf: Postemergence", "outline": "as §1"}, "[9]": {"system": "downy bromegrass (Bromus tectorum)", "settings": "for Bromegrass, Downy plant response rating (0 to 100 scale): 62 g ai/ha, postemergence, 0 is no effect, 100 is complete control; for Plant response rating, Bromegrass, Downy: Postemergence", "outline": "as §1"}, "[10]": {"system": "wheat (Triticum aestivum)", "settings": "for Plant response rating, Wheat: Postemergence", "outline": "as §1"}, "[11]": {"settings": "62 g ai/ha, postemergence, 0 is no effect, 100 is complete control, 13 to 15 days"}, "[12]": {"settings": "31 g ai/ha, 0 to 100 scale (0 no effect, 100 complete control)"}, "[13]": {"settings": "125 g ai/ha, scale 0 to 100 (0 no effect, 100 complete control)"}, "[14]": {"settings": "250 g ai/ha, scale 0 to 100 (0 no effect, 100 complete control), 13 to 15 days"}},
  "data": [
    {"smiles": "CCCn1c(-c2cccc(C(F)(F)F)c2)ncc(C(=O)C2=C(O)CCCC2=O)c1=O", "note": "[Compound 155]", "values": [
      {"measurement": "Nutsedge, Yellow plant response rating (0 to 100 scale)", "setting": "[1]; [11]", "result": 45},
      {"measurement": "Plant response rating, Nutsedge, Yellow", "setting": "[1]; [12]", "result": 20},
      {"measurement": "Plant response rating, Nutsedge, Yellow", "setting": "[1]; [13]", "result": 70},
      {"measurement": "Plant response rating, Nutsedge, Yellow", "setting": "[1]; [14]", "result": 75},
      {"measurement": "Ryegrass, Italian plant response rating (0 to 100 scale)", "setting": "[2]; [11]", "result": 30},
      {"measurement": "Plant response rating, Ryegrass, Italian", "setting": "[2]; [12]", "result": 5},
      {"measurement": "Plant response rating, Ryegrass, Italian", "setting": "[2]; [13]", "result": 40},
      {"measurement": "Plant response rating, Ryegrass, Italian", "setting": "[2]; [14]", "result": 60},
      {"measurement": "Kochia plant response rating (0 to 100 scale)", "setting": "kochia (Kochia scoparia); [11]", "result": 100},
      {"measurement": "Plant response rating, Kochia", "setting": "kochia (Kochia scoparia); [12]", "result": 35},
      {"measurement": "Plant response rating, Kochia", "setting": "kochia (Kochia scoparia); [13]", "result": 100},
      {"measurement": "Plant response rating, Kochia", "setting": "kochia (Kochia scoparia); [14]", "result": 100},
      {"measurement": "Crabgrass, Large plant response rating (0 to 100 scale)", "setting": "[3]; [11]", "result": 75},
      {"measurement": "Plant response rating, Crabgrass, Large", "setting": "[3]; [12]", "result": 60},
      {"measurement": "Plant response rating, Crabgrass, Large", "setting": "[3]; [13]", "result": 80},
      {"measurement": "Plant response rating, Crabgrass, Large", "setting": "[3]; [14]", "result": 90},
      {"measurement": "Cocklebur plant response rating (0 to 100 scale)", "setting": "[4]; [11]", "result": 55},
      {"measurement": "Plant response rating, Cocklebur", "setting": "[4]; [12]", "result": 15},
      {"measurement": "Plant response rating, Cocklebur", "setting": "[4]; [13]", "result": 98},
      {"measurement": "Plant response rating, Cocklebur", "setting": "[4]; [14]", "result": 100},
      {"measurement": "Cupgrass, Woolly plant response rating (0 to 100 scale)", "setting": "[5]; [11]", "result": 45},
      {"measurement": "Plant response rating, Cupgrass, Woolly", "setting": "[5]; [12]", "result": 20},
      {"measurement": "Plant response rating, Cupgrass, Woolly", "setting": "[5]; [13]", "result": 65},
      {"measurement": "Plant response rating, Cupgrass, Woolly", "setting": "[5]; [14]", "result": 75},
      {"measurement": "Soybean plant response rating (0 to 100 scale)", "setting": "soybean (Glycine max); [11]", "result": 95},
      {"measurement": "Plant response rating, Soybean", "setting": "soybean (Glycine max); [12]", "result": 95},
      {"measurement": "Plant response rating, Soybean", "setting": "soybean (Glycine max); [13]", "result": 100},
      {"measurement": "Plant response rating, Soybean", "setting": "soybean (Glycine max); [14]", "result": 100},
      {"measurement": "Bermudagrass plant response rating (0 to 100 scale)", "setting": "[6]; 13 to 15 days", "result": 98},
      {"measurement": "Plant response rating, Bermudagrass", "setting": "[6]; [12]", "result": 85},
      {"measurement": "Plant response rating, Bermudagrass", "setting": "[6]; [13]", "result": 98},
      {"measurement": "Plant response rating, Bermudagrass", "setting": "[6]; [14]", "result": 100},
      {"measurement": "Morningglory plant response rating (0 to 100 scale)", "setting": "[7]; [11]", "result": 85},
      {"measurement": "Plant response rating, Morningglory", "setting": "[7]; [12]", "result": 55},
      {"measurement": "Plant response rating, Morningglory", "setting": "[7]; [13]", "result": 100},
      {"measurement": "Plant response rating, Morningglory", "setting": "[7]; [14]", "result": 100},
      {"measurement": "Velvetleaf plant response rating (0 to 100 scale)", "setting": "[8]; [11]", "result": 100},
      {"measurement": "Plant response rating, Velvetleaf", "setting": "[8]; [12]", "result": 100},
      {"measurement": "Plant response rating, Velvetleaf", "setting": "[8]; [13]", "result": 100},
      {"measurement": "Plant response rating, Velvetleaf", "setting": "[8]; [14]", "result": 100},
      {"measurement": "Bromegrass, Downy plant response rating (0 to 100 scale)", "setting": "[9]; 13 to 15 days", "result": 30},
      {"measurement": "Plant response rating, Bromegrass, Downy", "setting": "[9]; [12]", "result": 5},
      {"measurement": "Plant response rating, Bromegrass, Downy", "setting": "[9]; [13]", "result": 35},
      {"measurement": "Plant response rating, Bromegrass, Downy", "setting": "[9]; [14]", "result": 50},
      {"measurement": "Wheat plant response rating (0 to 100 scale)", "setting": "[10]; [11]", "result": 30},
      {"measurement": "Plant response rating, Wheat", "setting": "[10]; [12]", "result": 15},
      {"measurement": "Plant response rating, Wheat", "setting": "[10]; [13]", "result": 40},
      {"measurement": "Plant response rating, Wheat", "setting": "[10]; [14]", "result": 70}
    ]},
    {"smiles": "CCCn1c(-c2cc(C)cc(C)c2)ncc(C(=O)C2=C(O)CCCC2=O)c1=O", "note": "[Compound 156]", "values": [
      {"measurement": "Plant response rating, Nutsedge, Yellow", "setting": "[1]; [12]", "result": 45},
      {"measurement": "Plant response rating, Nutsedge, Yellow", "setting": "[1]; [13]", "result": 70},
      {"measurement": "Plant response rating, Nutsedge, Yellow", "setting": "[1]; [14]", "result": 75},
      {"measurement": "Plant response rating, Ryegrass, Italian", "setting": "[2]; [12]", "result": 0},
      {"measurement": "Plant response rating, Ryegrass, Italian", "setting": "[2]; [13]", "result": 20},
      {"measurement": "Plant response rating, Ryegrass, Italian", "setting": "[2]; [14]", "result": 40},
      {"measurement": "Plant response rating, Kochia", "setting": "kochia (Kochia scoparia); [12]", "result": 10},
      {"measurement": "Plant response rating, Kochia", "setting": "kochia (Kochia scoparia); [13]", "result": 20},
      {"measurement": "Plant response rating, Kochia", "setting": "kochia (Kochia scoparia); [14]", "result": 25},
      {"measurement": "Plant response rating, Crabgrass, Large", "setting": "[3]; [12]", "result": 45},
      {"measurement": "Plant response rating, Crabgrass, Large", "setting": "[3]; [13]", "result": 65},
      {"measurement": "Plant response rating, Crabgrass, Large", "setting": "[3]; [14]", "result": 80},
      {"measurement": "Plant response rating, Cocklebur", "setting": "[4]; [12]", "result": 20},
      {"measurement": "Plant response rating, Cocklebur", "setting": "[4]; [13]", "result": 75},
      {"measurement": "Plant response rating, Cocklebur", "setting": "[4]; [14]", "result": 98},
      {"measurement": "Plant response rating, Cupgrass, Woolly", "setting": "[5]; [12]", "result": 40},
      {"measurement": "Plant response rating, Cupgrass, Woolly", "setting": "[5]; [13]", "result": 55},
      {"measurement": "Plant response rating, Cupgrass, Woolly", "setting": "[5]; [14]", "result": 65},
      {"measurement": "Plant response rating, Soybean", "setting": "soybean (Glycine max); [12]", "result": 80},
      {"measurement": "Plant response rating, Soybean", "setting": "soybean (Glycine max); [13]", "result": 98},
      {"measurement": "Plant response rating, Soybean", "setting": "soybean (Glycine max); [14]", "result": 98},
      {"measurement": "Bermudagrass plant response rating (0 to 100 scale)", "setting": "[6]; 13 to 15 days", "result": 90},
      {"measurement": "Plant response rating, Bermudagrass", "setting": "[6]; [12]", "result": 80},
      {"measurement": "Plant response rating, Bermudagrass", "setting": "[6]; [13]", "result": 95},
      {"measurement": "Plant response rating, Bermudagrass", "setting": "[6]; [14]", "result": 98},
      {"measurement": "Plant response rating, Morningglory", "setting": "[7]; [12]", "result": 80},
      {"measurement": "Plant response rating, Morningglory", "setting": "[7]; [13]", "result": 100},
      {"measurement": "Plant response rating, Morningglory", "setting": "[7]; [14]", "result": 100},
      {"measurement": "Plant response rating, Velvetleaf", "setting": "[8]; [12]", "result": 60},
      {"measurement": "Plant response rating, Velvetleaf", "setting": "[8]; [13]", "result": 95},
      {"measurement": "Plant response rating, Velvetleaf", "setting": "[8]; [14]", "result": 100},
      {"measurement": "Bromegrass, Downy plant response rating (0 to 100 scale)", "setting": "[9]; 13 to 15 days", "result": 10},
      {"measurement": "Plant response rating, Bromegrass, Downy", "setting": "[9]; [12]", "result": 10},
      {"measurement": "Plant response rating, Bromegrass, Downy", "setting": "[9]; [13]", "result": 35},
      {"measurement": "Plant response rating, Bromegrass, Downy", "setting": "[9]; [14]", "result": 40},
      {"measurement": "Plant response rating, Wheat", "setting": "[10]; [12]", "result": 15},
      {"measurement": "Plant response rating, Wheat", "setting": "[10]; [13]", "result": 35},
      {"measurement": "Plant response rating, Wheat", "setting": "[10]; [14]", "result": 45}
    ]}
  ]
}
